# According to patent publication US20220306630A1, “AGONISTS OF ROR GAMMAt” (BRISTOL-MYERS SQUIBB COMPANY, priority 2019, published 2022):
# Molecular target: T1, RORgT (Homo sapiens, UniProt P51449)
# T1 construct: Gal4 (fusion partner); expressed in transfected cells; host or cells: engineered Jurkat cells (Jurkat pEx/Gal/hRORγ CLBD/HYG pG5luc/blast)
# T1 sequence (P51449 267-516): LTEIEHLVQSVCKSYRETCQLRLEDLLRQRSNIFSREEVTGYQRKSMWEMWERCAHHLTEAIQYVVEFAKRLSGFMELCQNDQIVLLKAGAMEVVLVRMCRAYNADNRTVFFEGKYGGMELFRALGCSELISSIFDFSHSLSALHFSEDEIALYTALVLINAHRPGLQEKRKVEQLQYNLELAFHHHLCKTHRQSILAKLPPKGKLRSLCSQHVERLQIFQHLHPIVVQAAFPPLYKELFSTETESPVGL
# Assay: RORgT Gal4 Luciferase Reporter Gene Assay
# Assay type: cell-based
# Conditions: engineered Jurkat cells overexpressing RORgT (LBD or full length) with Gal4 Luc reporter; 18 hours at 37° C.; 40 μM to 0.67 nM; read-out: RORg_GAL4 EC50
# How it was run: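 Cells exposed to compound 18 hours at 37° C, then lysed for luciferase luminescence. Inhibition of constitutive activity expressed as percent reduction of signal window relative to a control compound.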
row,EC50 [nM],Structure (SMILES)
1,330,COc1ccc(Oc2c(Cl)ccc(C(=O)NCc3ccccc3Cl)c2Cl)cc1C(C)C [Example 200]
2,511,COc1ccc(Oc2c(Cl)ccc(C(=O)NCC#N)c2Cl)cc1C(C)C [Example 201]
3,4490,COc1ccc(Oc2c(Cl)ccc(C(=O)Nc3cccnc3)c2Cl)cc1C(C)C [Example 202]
4,129,COc1ccc(Oc2c(Cl)ccc(C(=O)N3CCN(C(C)=O)CC3)c2Cl)cc1C(C)C [Example 203]
5,40,COc1ccc(Oc2c(Cl)ccc(C(=O)NC(C)c3cn(C)nc3C)c2Cl)cc1C(C)C (stereo not shown) [Example 204]
6,564,COc1ccc(Oc2c(Cl)ccc(C(=O)NCc3cc(C)no3)c2Cl)cc1C(C)C [Example 205]
7,100,COc1ccc(Oc2c(Cl)ccc(C(=O)NCc3cnc(C)cn3)c2Cl)cc1C(C)C [Example 206]
8,63,COc1ccc(Oc2c(Cl)ccc(C(=O)Nc3cccc4cnccc34)c2Cl)cc1C(C)C [Example 207]
9,508,COc1ccc(Oc2c(Cl)ccc(C(=O)NCCO)c2Cl)cc1C(C)C [Example 208]
10,659,CCCCNC(=O)c1ccc(Cl)c(Oc2ccc(OC)c(C(C)C)c2)c1Cl [Example 209]
11,105,COc1ccc(Oc2c(Cl)ccc(C(=O)N3CCCC3)c2Cl)cc1C(C)C [Example 210]
12,46,COc1ccc(Oc2c(Cl)ccc(C(=O)N3CCOCC3)c2Cl)cc1C(C)C [Example 211]
13,11,CCS(=O)(=O)N1CCC(C(=O)NCc2ccc(Cl)c(Oc3ccc(OC)c(C(C)C)c3)c2Cl)CC1 [Example 212]
14,19,COc1ccc(Oc2c(Cl)ccc(CNC(=O)C3CCN(S(C)(=O)=O)CC3)c2Cl)cc1C(C)C [Example 213]
15,434,COc1ccc(Oc2c(Cl)ccc(C(=O)N3CCN(c4ccccc4)CC3)c2Cl)cc1C(C)C [Example 214]
16,37,COc1ccc(Oc2c(Cl)ccc(C(=O)Nc3ccccc3CC#N)c2Cl)cc1C(C)C [Example 215]

row,EC50 [nM],Structure (SMILES)
1,813,COc1ccc(Oc2c(Cl)ccc(C(=O)NCC3CCOCC3)c2Cl)cc1C(C)C [Example 216]
2,45,COc1ccc(Oc2c(Cl)ccc(C(=O)NC(C)c3ccnn3C)c2Cl)cc1C(C)C (stereo not shown) [Example 217]
3,328,COc1ccc(Oc2c(Cl)ccc(C(=O)NCCc3ncn[nH]3)c2Cl)cc1C(C)C [Example 218]
4,1500,COc1ccc(Oc2c(Cl)ccc(C(=O)NCCc3ccc(S(N)(=O)=O)cc3)c2Cl)cc1C(C)C [Example 219]
5,560,COc1ccc(Oc2c(Cl)ccc(C(=O)NCCNC(C)=O)c2Cl)cc1C(C)C [Example 221]
6,225,COc1ccc(Oc2c(Cl)ccc(CNC(=O)CC3CCN(S(C)(=O)=O)CC3)c2Cl)cc1C(C)C [Example 222]
7,1110,CCS(=O)(=O)N1CCC(OCC(=O)NCc2ccc(Cl)c(Oc3ccc(OC)c(C(C)C)c3)c2Cl)CC1 [Example 223]
8,732,COc1ccc(Oc2c(Cl)ccc(CNC(=O)CCC3CCN(S(C)(=O)=O)CC3)c2Cl)cc1C(C)C [Example 224]
9,920,COc1ccc(Oc2c(Cl)ccc(C(=O)NCC3CCCC(O)C3)c2Cl)cc1C(C)C (stereo not shown) [Example 225]
10,286,COc1ccc(Oc2c(Cl)ccc(C(=O)NCC3CCCC(O)C3)c2Cl)cc1C(C)C (stereo not shown) [Example 226]
11,109,"COc1ccc(Oc2c(Cl)ccc(C(=O)NCc3ccc(=O)[nH]c3)c2Cl)cc1C(C)C [Example 227, 2,4-dichloro-3-[4-methoxy-3-(propan-2-yl)phenoxy]-N-[(6-oxo-1,6-dihydropyridin-3-yl)methyl]benzamide]"
12,102,COc1ccc(Oc2c(Cl)ccc(C(=O)NCc3ccc(C#N)cc3)c2Cl)cc1C(C)C [Example 228]
13,891,COc1ccc(Oc2c(Cl)cc(NC(=O)CN3CC4(C3)CN(S(=O)(=O)C3CC3)C4)cc2Cl)cc1C(C)C [Example 229]
14,373,COc1ccc(Oc2c(Cl)ccc(C(=O)N3CCN(c4ccc(Cl)cc4)CC3)c2Cl)cc1C(C)C [Example 230]
15,26,COc1ccc(Oc2c(Cl)cc(NC(=O)Cc3cccc(S(C)(=O)=O)c3)cc2Cl)cc1C(C)C [Example 231]
